Laboratory results published in PubChem BioAssay (NCI).
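The compound was tested at five concentrations on cells cultured in 96-well plates, with a 48-hour exposure period. GI50 = concentration required for 50% inhibition of growth. TGI: concentration producing complete growth inhibition.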

Legend:
Assay in all cases: DTP human tumour cell line panel, 48 h
U251 CNS = test system: U251 CNS
UO-31 renal = test system: UO-31 renal
UACC-62 melanoma = test system: UACC-62 melanoma
SR leukemia = test system: SR leukemia
HT29 colon = test system: HT29 colon
HOP-92 NSCLC = test system: HOP-92 NSCLC
HCT-15 colon = test system: HCT-15 colon
SN12C renal = test system: SN12C renal
MDA-MB-231 breast = test system: MDA-MB-231 breast
DU-145 prostate = test system: DU-145 prostate
EKVX NSCLC = test system: EKVX NSCLC
SW-620 colon = test system: SW-620 colon
CAKI-1 renal = test system: CAKI-1 renal
NCI-H23 lung = test system: NCI-H23 lung
NCI/ADR-RES ovarian = test system: NCI/ADR-RES ovarian
NCI-H522 lung = test system: NCI-H522 lung
SK-MEL-2 melanoma = test system: SK-MEL-2 melanoma
MALME-3M melanoma = test system: MALME-3M melanoma
786-0 renal = test system: 786-0 renal
A549 NSCLC = test system: A549 NSCLC
RPMI-8226 leukemia = test system: RPMI-8226 leukemia
LOX IMVI melanoma = test system: LOX IMVI melanoma
ACHN renal = test system: ACHN renal
M14 melanoma = test system: M14 melanoma
SK-MEL-28 melanoma = test system: SK-MEL-28 melanoma
SK-OV-3 ovarian = test system: SK-OV-3 ovarian
HS 578T breast = test system: HS 578T breast
RXF 393 renal = test system: RXF 393 renal
COLO 205 colon = test system: COLO 205 colon
HCC-2998 colon = test system: HCC-2998 colon
K-562 leukemia = test system: K-562 leukemia
IGROV1 ovarian = test system: IGROV1 ovarian
BT-549 breast = test system: BT-549 breast
MOLT-4 leukemia = test system: MOLT-4 leukemia
HCT-116 colon = test system: HCT-116 colon
A498 renal = test system: A498 renal
T-47D breast = test system: T-47D breast
OVCAR-5 ovarian = test system: OVCAR-5 ovarian
HL-60(TB) leukemia = test system: HL-60(TB) leukemia
MDA-MB-435 = test system: MDA-MB-435
SK-MEL-5 melanoma = test system: SK-MEL-5 melanoma
CCRF-CEM leukemia = test system: CCRF-CEM leukemia
PC-3 prostate = test system: PC-3 prostate
MCF7 breast = test system: MCF7 breast
OVCAR-8 ovarian = test system: OVCAR-8 ovarian
NCI-H226 lung = test system: NCI-H226 lung
OVCAR-3 ovarian = test system: OVCAR-3 ovarian
SF-539 CNS = test system: SF-539 CNS
HOP-62 NSCLC = test system: HOP-62 NSCLC
SF-295 CNS = test system: SF-295 CNS
OVCAR-4 ovarian = test system: OVCAR-4 ovarian
NCI-H460 lung = test system: NCI-H460 lung
KM12 colon = test system: KM12 colon
SF-268 CNS = test system: SF-268 CNS
SNB-75 CNS = test system: SNB-75 CNS
UACC-257 melanoma = test system: UACC-257 melanoma
SNB-19 CNS = test system: SNB-19 CNS
TK-10 renal = test system: TK-10 renal

## COc1cccc2c(=O)c3c(sc12)c(NCCCNCCO)nc1ccccc13
U251 CNS
  GI50: 1.53 µM
  TGI: 3.02 µM
UO-31 renal
  GI50: 1.03 µM
  TGI: 2.28 µM
UACC-62 melanoma
  GI50: 1.6 µM
  TGI: 3.03 µM
SR leukemia
  GI50: 1.45 µM
  TGI: 3.83 µM
HT29 colon
  GI50: 1.54 µM
  TGI: 3.75 µM
HOP-92 NSCLC
  GI50: 1.32 µM
  TGI: 13.1 µM
HCT-15 colon
  GI50: 1.51 µM
  TGI: 3.02 µM
SN12C renal
  GI50: 1.51 µM
  TGI: 3.06 µM
MDA-MB-231 breast
  GI50: 1.35 µM
  TGI: 2.86 µM
DU-145 prostate
  GI50: 1.65 µM
  TGI: 3.11 µM
EKVX NSCLC
  GI50: 1.52 µM
  TGI: 3.05 µM
SW-620 colon
  GI50: 1.38 µM
  TGI: 2.9 µM
CAKI-1 renal
  GI50: 1.18 µM
  TGI: 2.5 µM
NCI-H23 lung
  GI50: 1.64 µM
  TGI: 3.27 µM
NCI/ADR-RES ovarian
  GI50: 1.81 µM
  TGI: 3.94 µM
NCI-H522 lung
  GI50: 1.58 µM
  TGI: 3.45 µM
SK-MEL-2 melanoma
  GI50: 1.83 µM
  TGI: 3.74 µM
MALME-3M melanoma
  GI50: 1.64 µM
  TGI: 3.15 µM
786-0 renal
  GI50: 1.75 µM
  TGI: 3.25 µM
A549 NSCLC
  GI50: 1.42 µM
  TGI: 3.11 µM
RPMI-8226 leukemia
  GI50: 1.73 µM
  TGI: 3.71 µM
LOX IMVI melanoma
  GI50: 1.48 µM
  TGI: 2.96 µM
ACHN renal
  GI50: 1.35 µM
  TGI: 2.67 µM
M14 melanoma
  GI50: 1.7 µM
  TGI: 3.22 µM
SK-MEL-28 melanoma
  GI50: 1.9 µM
  TGI: 3.46 µM
SK-OV-3 ovarian
  GI50: 3.39 µM
  TGI: 19.4 µM
HS 578T breast
  GI50: 1.65 µM
  TGI: 4.07 µM
RXF 393 renal
  GI50: 1.46 µM
  TGI: 2.84 µM
COLO 205 colon
  GI50: 1.45 µM
  TGI: 3.09 µM
HCC-2998 colon
  GI50: 1.59 µM
  TGI: 3.21 µM
K-562 leukemia
  GI50: 1.42 µM
  TGI: 3.68 µM
IGROV1 ovarian
  GI50: 1.16 µM
  TGI: 2.58 µM
BT-549 breast
  GI50: 5.29 µM
  TGI: 18.6 µM
MOLT-4 leukemia
  GI50: 1.58 µM
  TGI: 3.31 µM
HCT-116 colon
  GI50: 1.41 µM
  TGI: 2.74 µM
A498 renal
  GI50: 1.56 µM
  TGI: 3.3 µM
T-47D breast
  GI50: 1.48 µM
  TGI: 3.48 µM
OVCAR-5 ovarian
  GI50: 1.58 µM
  TGI: 3.16 µM
HL-60(TB) leukemia
  GI50: 1.73 µM
  TGI: 3.5 µM
MDA-MB-435
  GI50: 1.72 µM
  TGI: 3.2 µM
SK-MEL-5 melanoma
  GI50: 1.69 µM
  TGI: 3.11 µM
CCRF-CEM leukemia
  GI50: 1.53 µM
  TGI: 3.18 µM
PC-3 prostate
  GI50: 1.23 µM
  TGI: 2.7 µM
MCF7 breast
  GI50: 1.46 µM
  TGI: 3 µM
OVCAR-8 ovarian
  GI50: 1.78 µM
  TGI: 3.97 µM
NCI-H226 lung
  GI50: 1.6 µM
  TGI: 3.46 µM
OVCAR-3 ovarian
  GI50: 1.64 µM
  TGI: 3.16 µM
SF-539 CNS
  GI50: 1.68 µM
  TGI: 3.1 µM
HOP-62 NSCLC
  GI50: 1.2 µM
  TGI: 2.81 µM
SF-295 CNS
  GI50: 1.71 µM
  TGI: 3.24 µM
OVCAR-4 ovarian
  GI50: 1.63 µM
  TGI: 3.38 µM
NCI-H460 lung
  GI50: 1.54 µM
  TGI: 3.15 µM
KM12 colon
  GI50: 1.72 µM
  TGI: 3.23 µM
SF-268 CNS
  GI50: 1.59 µM
  TGI: 3.33 µM
SNB-75 CNS
  GI50: 0.964 µM
  TGI: 7.44 µM
UACC-257 melanoma
  GI50: 1.94 µM
  TGI: 3.79 µM

## O=C(c1cccs1)C1NO[N+]([O-])=C1c1cccs1 (stereo unspecified)
U251 CNS
  GI50: 5.6 µM
  TGI: 12 µM
UO-31 renal
  GI50: 0.27 µM
  TGI: 1.47 µM
UACC-62 melanoma
  GI50: 12.1 µM
  TGI: 24.8 µM
SR leukemia
  GI50: 2.08 µM
  TGI: 4.73 µM
HT29 colon
  GI50: 1.94 µM
  TGI: 3.65 µM
HOP-92 NSCLC
  GI50: 1.65 µM
  TGI: 3.59 µM
HCT-15 colon
  GI50: 3.43 µM
  TGI: 14.7 µM
SN12C renal
  GI50: 9.49 µM
  TGI: 21.8 µM
MDA-MB-231 breast
  GI50: 11.8 µM
  TGI: 25 µM
DU-145 prostate
  GI50: 3.76 µM
  TGI: 10.7 µM
EKVX NSCLC
  GI50: 3.71 µM
  TGI: 10.9 µM
SW-620 colon
  GI50: 1.54 µM
  TGI: 3.01 µM
CAKI-1 renal
  GI50: 1.61 µM
  TGI: 3.41 µM
NCI-H23 lung
  GI50: 2.94 µM
  TGI: 9.42 µM
NCI/ADR-RES ovarian
  GI50: 3.42 µM
  TGI: 18.9 µM
NCI-H522 lung
  GI50: 0.174 µM
  TGI: 0.336 µM
SK-MEL-2 melanoma
  GI50: 11.2 µM
  TGI: 24.5 µM
MALME-3M melanoma
  GI50: 0.517 µM
  TGI: 1.19 µM
786-0 renal
  GI50: 2.01 µM
  TGI: 3.88 µM
A549 NSCLC
  GI50: 9.89 µM
  TGI: 34.4 µM
RPMI-8226 leukemia
  GI50: 2.36 µM
  TGI: 6.2 µM
LOX IMVI melanoma
  GI50: 2.4 µM
  TGI: 6.5 µM
ACHN renal
  GI50: 1.85 µM
  TGI: 3.56 µM
M14 melanoma
  GI50: 2.71 µM
  TGI: 7.87 µM
SK-MEL-28 melanoma
  GI50: 2.52 µM
  TGI: 6.8 µM
SK-OV-3 ovarian
  GI50: 18.6 µM
  TGI: 32.8 µM
HS 578T breast
  GI50: 2.82 µM
  TGI: 14.6 µM
RXF 393 renal
  GI50: 1.68 µM
  TGI: 3.42 µM
COLO 205 colon
  GI50: 1.8 µM
  TGI: 4.51 µM
HCC-2998 colon
  GI50: 17.2 µM
  TGI: 31.7 µM
K-562 leukemia
  GI50: 3.02 µM
  TGI: > 100 µM
IGROV1 ovarian
  GI50: 1.75 µM
  TGI: 3.72 µM
BT-549 breast
  GI50: 9.41 µM
  TGI: 21.2 µM
MOLT-4 leukemia
  GI50: 2.86 µM
  TGI: 9.19 µM
HCT-116 colon
  GI50: 3.03 µM
  TGI: 10.2 µM
A498 renal
  GI50: 1.95 µM
  TGI: 6.3 µM
T-47D breast
  GI50: 2.2 µM
  TGI: 5.09 µM
OVCAR-5 ovarian
  GI50: 7.62 µM
  TGI: 20.4 µM
MDA-MB-435
  GI50: 5.29 µM
  TGI: 16.3 µM
SK-MEL-5 melanoma
  GI50: 16.2 µM
  TGI: 31 µM
CCRF-CEM leukemia
  GI50: 1.23 µM
  TGI: 3.54 µM
PC-3 prostate
  GI50: 8.43 µM
  TGI: 22.3 µM
MCF7 breast
  GI50: 4.84 µM
  TGI: 16.3 µM
OVCAR-8 ovarian
  GI50: 2.9 µM
  TGI: > 21.9 µM
SNB-19 CNS
  GI50: 29.9 µM
  TGI: > 79.2 µM
NCI-H226 lung
  GI50: 9.9 µM
  TGI: > 35.2 µM
TK-10 renal
  GI50: 2.45 µM
  TGI: 6.27 µM
OVCAR-3 ovarian
  GI50: 1.79 µM
  TGI: 3.2 µM
SF-539 CNS
  GI50: 1.86 µM
  TGI: 3.39 µM
HOP-62 NSCLC
  GI50: 4.77 µM
  TGI: 11.4 µM
SF-295 CNS
  GI50: 6.07 µM
  TGI: 12.4 µM
OVCAR-4 ovarian
  GI50: 2.13 µM
  TGI: 4.97 µM
NCI-H460 lung
  GI50: 5.37 µM
  TGI: 13.1 µM
KM12 colon
  GI50: 3.33 µM
  TGI: 12.1 µM
SF-268 CNS
  GI50: 2.35 µM
  TGI: 5.98 µM
SNB-75 CNS
  GI50: 1.54 µM
  TGI: 3.89 µM
UACC-257 melanoma
  GI50: 5.16 µM
  TGI: 15.3 µM
